Where a SMILES comes first, the peptide text is derived from it.
Tests used:
[1] = target: T1, human NK2 Receptor (hNK2R) (Homo sapiens, UniProt P21452); assay: [125I]-NKA radioligand competition binding to human recombinant NK2Rs (CHO-hNK2 membranes)
T1 sequence (P21452 1-398): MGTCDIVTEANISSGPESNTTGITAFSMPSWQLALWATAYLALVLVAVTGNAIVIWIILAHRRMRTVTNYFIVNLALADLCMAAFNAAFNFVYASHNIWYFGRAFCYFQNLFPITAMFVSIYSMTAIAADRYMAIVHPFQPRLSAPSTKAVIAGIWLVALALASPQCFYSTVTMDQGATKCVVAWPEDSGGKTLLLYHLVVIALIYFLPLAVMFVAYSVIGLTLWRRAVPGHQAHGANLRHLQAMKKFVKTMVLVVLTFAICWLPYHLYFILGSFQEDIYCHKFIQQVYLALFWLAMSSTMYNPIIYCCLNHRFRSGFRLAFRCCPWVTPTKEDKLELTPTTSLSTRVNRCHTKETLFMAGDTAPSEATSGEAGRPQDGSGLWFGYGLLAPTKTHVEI
Protocol: (§1) After removal of the supernatant the cell pellet was washed and collected by re-suspension in PBS and centrifugation.
(§2) Frozen pellets were thawed and homogenized in 10 volumes (w/v) of membrane preparation buffer (50 mM HEPES pH 7.4, 1 mM EDTA, 50 μg/mL bacitracin and protease inhibitors) using a Polytron Ultraturrax (twice for 15 s per cycle). […] Protein concentration was determined using BioRad Protein Assay (Milan, Italy) with a BSA standard curve.

[2] = Pharmacokinetics in rat plasma after cassette IV bolus dosing; settings: Sprague-Dawley, in vivo, iv
Protocol: The concentrations of compounds (SEQ ID NOS: 1-11) were measured in rat plasma after intravenous (IV) bolus dosing to determine pharmacokinetic profiles of individual compounds.
Animal preparation: In vivo studies were performed in anesthetized adult Sprague Dawley rats. Rats were anesthetized with urethane (1.2-1.4 g/kg subcutaneous injection). Surgical procedures were then performed with the addition of isoflurane anesthesia (0.05-1.5% in 02) as needed. A venous cannula was inserted into the jugular vein for intravenous (IV) administration of compounds.
In vivo dosing and plasma sampling: Compounds were divided into two groups (soluble and insoluble). Each group was dosed as a cassette in which four compounds (100 μg/kg each compound) were combined into a single IV bolus injection to anesthetized adult Sprague-Dawley rats. Soluble compounds were dissolved in saline. Insoluble compounds were dissolved in a 10% ethanol/saline solution. Rats were cassette dosed based on weight using 0.1 mg/mL solutions of individual compounds. Blood samples (700 μL) were collected using a carotid artery cannula into EDTA tubes containing ascorbic acid (final concentration 1%), and plasma was isolated.
Bioanalytical assay: A reversed-phase HPLC with Turbo Ion Spray MS/MS detection method was developed for bioanalysis. Mass spec transition and settings were individually optimized for each compound and then compounds were cassetted for HPLC method development and optimization. [^13C9; ^15N] [Lys5,MeLeu9,Nle10]-NKA(4-10) was used as an internal standard (IS). Analyte-to-IS peak area ratios for individual compounds were used to create linear calibration curves (1-20 ng/mL) using 1/×2 weighted least-squares regression analysis for evaluation of method linearity, precision and accuracy. For plasma concentration measurements, plasma samples were spiked with IS, processed by extraction, and analyzed using LC-MS/MS. Positive (M+H)+ ions for individual compounds and IS were monitored in MRM mode.

[3] = target: human NK1 Receptor (hNK1R) (Homo sapiens, UniProt P25103); assay: [3H]-septide radioligand competition binding to human recombinant NK1Rs (CHO-hNK1 membranes); settings: displacement of 5.0 nM [3H]-septide, CHO-hNK1 membranes; read-out: hNK1 binding Ki
Chain of human NK1 Receptor (hNK1R) (P25103 whole entry): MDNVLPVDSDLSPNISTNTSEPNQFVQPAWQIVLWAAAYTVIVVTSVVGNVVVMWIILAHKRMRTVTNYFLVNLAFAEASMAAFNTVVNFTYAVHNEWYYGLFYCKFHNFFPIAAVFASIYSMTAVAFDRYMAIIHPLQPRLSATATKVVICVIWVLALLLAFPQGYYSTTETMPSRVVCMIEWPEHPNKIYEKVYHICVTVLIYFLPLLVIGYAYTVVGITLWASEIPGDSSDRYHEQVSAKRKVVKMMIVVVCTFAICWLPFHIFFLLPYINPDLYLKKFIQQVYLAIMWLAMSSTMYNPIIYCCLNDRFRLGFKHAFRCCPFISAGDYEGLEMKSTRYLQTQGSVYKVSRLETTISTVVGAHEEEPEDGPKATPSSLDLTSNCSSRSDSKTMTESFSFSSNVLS
Protocol: as §1, §2

[4] = system: anesthetized acute spinal cord injured (aSCI) rat; assay: Colorectal (bowel) pressure manometry in anesthetized aSCI rats; assay type: in vivo; settings: doses >10 μg/kg SC
Protocol: Methods: Studies were conducted in acutely spinal transected rats under isovolumetric bladder pressure recording conditions. Acute spinal cord injury (aSCI) is an in vivo model of isolated bladder smooth muscle contraction without reinforcement from micturition reflexes (i.e., myogenic, not neurogenic, contraction). Thus, it can be viewed as a model of severe bladder underactivity.
Animal preparation: In vivo studies were performed in anesthetized, acutely spinalized (T8-10 level) rats. Rats were anesthetized with urethane (1.2-1.4 g/kg subcutaneous injection). Surgical procedures were then performed with the addition of isoflurane anesthesia (0.05-1.5% in 02) as needed. […]
Bowel Contractility: Colorectal pressure manometry was performed via a latex balloon catheter (length 3-5 cm) inserted (˜4 cm) into the distal rectal/colon region. […] This allowed drug induced changes in colorectal pressure to be monitored. Parameters measured include peak colorectal pressure response, duration of time above baseline activity (in the 1st 5 min after drug administration), area under the curve (measured during the 1st 5 min after drug administration) and the number of contractile events after vehicle and drug administration. […]
Data analysis: Data were examined qualitatively and quantitatively. The mean, standard deviation and standard error of the mean were calculated using MICROSOFT EXCEL.

[5] = system: anesthetized dog; assay: Urine leakage from the bladder in anesthetized dog; assay type: in vivo; settings: IV 3 μg/kg and SC 30 μg/kg, data not shown
Protocol: Animal preparation: Naïve beagle dogs were fasted for 12-24 hours and received a warm water enema the night prior to, and the morning of, the experiment to clear the rectum and lower colon of feces. The day of the experiment, a 20 gauge IV catheter (Terumo Surflo) was placed in the cephalic vein for anesthetic induction (propofol, 10 mg/kg; IV) and delivery of IV fluids (5-10 ml/kg/hr) and compounds. The sedated dog was intubated with a 5-6 Fr tracheal tube and was maintained on 2-3% isoflurane via a ventilator (15-25 breaths/min; tidal volume […]) for the remainder of the experiment.

CCCC[C@H](NC(=O)[C@H](CC(C)C)N(C)C(=O)CNC(=O)[C@@H](NC(=O)[C@H](Cc1ccccc1)NC(=O)[C@H](CCCNC(=N)N)NC(=O)[C@@H](N)CC(=O)O)C(C)C)C(N)=O [Compound B, Asp-Arg-Phe-Val-Gly-(NMe-Leu)-Nle-NH2] (HELM PEPTIDE1{D.R.F.V.G.[meL].[Nle].[am]}$$$$V2.0; N-terminus assumed)
Ki ([1]; displacement of 0.1 nM [125I]-NKA, CHO-hNK2 membranes, read-out: hNK2 binding Ki): 0.59 nM
hNK2 selectivity ratio ([1]; ratio of Kis hNK1R/hNK2R): 557.83
half-life [2]: 0.2 to 1.2 min
level at 10 min ([2]; 100 ug/kg): < 1 ng/mL
Ki [3]: 331 nM
bowel activity (bowel pressure AUC, first 5 min) [4]: measurable increases in bowel activity
urine leakage / induction of voiding [5]: leakage of urine from the bladder

From patent US11352391B2, “Compositions for inducing urinary voiding and defecation” (Dignify Therapeutics, LLC, priority 2017, dated 2022)
